Source: US8658605B2, “Bioactivity composition of Reevesia formosana” (priority 2011, dated 2014)

What was measured:
[1] = system: MCF-7 (human breast adenocarcinoma); experiment: MTS reduction assay, cytotoxicity on MCF-7 cells; format: cell-based; conditions: average of three repeats
Protocol: (§1) MCF-7 (human breast adenocarcinoma), NCI-H460 (non-small-cell lung cancer) and HepG2 (liver hepatocellular cells) were incubated in a modified Dulbecco's Eagle's medium with 10% FBS and nonessential amino acid ([…], Inc) in an incubator with 37° C., 5% CO2/Air. Human cancer cell lines were planted in 96-well plates, and each well which contained the 100 μl medium were planted one of MCF-7 and NCI-H460 with a cell amount of 6500, 2500 and 7500. After overnight incubation, each cell line was administered at least 8 testing compounds with different concentrations individually, and subsequently the cell lines were incubated in the incubator for 72 hours. According to a method of MTS reduction assay, 5-(3-carboxymethoxyphenyl)-2-(4,5-dimethylthiazoyl)-3-(4-sulfophenyl)tetrazolium salt (MTS) was applied on estimating alive cell numbers, and 0.1% DMSO (Promega, Madison, Wis., USA) was a control group because DMSO controlled a result of percentage, the result could be a dose-response curve of IC50 value. […] The IC50 value was an average of three times repeats. The 10000/well HepG2 cells were planted on a 96-well plate and were gone through the same experiences.

[2] = system: NCI-H460 (non-small-cell lung cancer); experiment: MTS reduction assay, cytotoxicity on NCI-H460 cells; format: cell-based, human; conditions: NCI-H460, 72 hours, average of three repeats
Protocol: as §1

[3] = system: HepG2 (liver hepatocellular cells); experiment: MTS reduction assay, cytotoxicity on HepG2 cells; format: cell-based, human; conditions: HepG2, 72 hours, average of three repeats
Protocol: as §1

Compound	IC50 ([1]; MCF-7, 72 hours)	IC50 [2]	IC50 [3]	IC50 ([1]; Homo sapiens, MCF7, MCF-7, 72 hours)	IC50 ([2]; Homo sapiens)	IC50 ([3]; Homo sapiens)
reevesioside E [reevesioside E (5)]	11800 ± 2240 nM	1770 ± 35.4 nM	40500 ± 6430 nM	–	–	–
reevesioside D [reevesioside D (4)]	36400 ± 2580 nM	3900 ± 316 nM	> 500000 nM	–	–	–
reevesioside B [reevesioside B (2)]	3520 ± 72 nM	431 ± 45.1 nM	4760 ± 202 nM	–	–	–
reevesioside C [reevesioside C (3)]	2040 ± 173 nM	208 ± 15.6 nM	3740 ± 261 nM	–	–	–
reevesioside F [reevesioside F (6)]	72 ± 8.1 nM	20.3 ± 0.4 nM	836 ± 33.2 nM	–	–	–
COC1C(OC2CCC3(C=O)C4CCC5(C)C(C6=CC(=O)OC6)CCC5(O)C4CCC3(O)C2)OC(C)C(O)C1O (stereo not drawn) [epi-reevesioside F (7), epi-reevesioside F]	34.1 ± 5.5 nM	10.4 ± 0.5 nM	996 ± 92.6 nM	–	–	–
C[C@@H]1C[C@H]2OCO[C@H]2[C@H](O[C@H]2CC[C@]3(C=O)[C@H]4CC[C@]5(C)[C@@H](C6=CC(=O)OC6)CC[C@]5(O)[C@@H]4CC[C@]3(O)C2)O1 [reevesioside A (1), reevesioside A]	63.2 ± 2.1 nM	19.3 ± 0.5 nM	368 ± 29.9 nM	–	–	–
COc1cc2c3c(c4cc(OC)c(OC)cc4c2cc1OC)CN1CCC[C@@H]1C3 [tylophorine, reference compound]	–	–	–	236 ± 11 nM	233 ± 24 nM	215 ± 14 nM
